The values that follow come from patent US20190284635A1, “METHOD FOR THE PROGNOSIS AND/OR TREATMENT OF ACUTE PROMYELOCYTIC LEUKEMIA” (EPI-C S.R.L., priority 2016, published 2019).

Data set [1] has as its system NB4 cells. Briefly: Combination of ABT-737 with MC2884, pre-G1 cells. Conditions: ABT-737 with addition of MC2884 at concentrations that alone induced little apoptosis. The class given is cell-based, human.
Experimental: For cell cycle analyses, the cells were plated (2×10^5 cells/mL) and after stimulation (performed as indicated in the text) were harvested, centrifuged at 1200 rpm for 5 minutes and resuspended in 500 μL of a hypotonic solution containing 1×PBS, Sodium Citrate 0.1%, 0.1% NP-40, RNAase A and 50 mg/mL Propidium Iodide (PI) (a dye that intercalates between the DNA bases, marking the DNA content in the cells and emitting a fluorescent signal that enables the analysis). After 30' at room temperature (RT) in the dark, samples were acquired by FACS-Calibur (BD Bioscences, San Jose, Calif., USA) using CellQuest software (BD Biosciences). The percentage in different phases of the cell cycle was determined by ModFit LT V3 software (Verity). All experiments were performed in triplicate.
Data set [2] has as its system APL-Rs (pt#7 and 8) blasts. The experiment in a line: Cell death in ex vivo APL-R blasts. The class given is cell-based, human. Conditions: pt#7 and 8, 24 h. How it is done: Blasts cells were purified by the Ficoll-Hypaque gradient separation method (GE Healthcare). RNA was obtained by using TRIzol (Life Technologies) according to the manufacturer's recommendations. Isolation of genomic DNA has complied the FlexiGene DNA protocol (Qiagen).
To further strengthen our findings in primary human cells, apoptosis was evaluated in 6 AML patient blasts (FIG. 10C).

The target of the next data set is GCN5 (Homo sapiens, UniProt Q92830). Briefly: HAT in vitro assay, GCN5. The class given is biochemical. Conditions: substrate Histone H3; 3 μM Acetyl-CoA; 10-dose IC50 mode; read-out: IC50 GCN5 acetyltransferase. How it is done: (§1) MC2884 activity was also tested in vitro and IC50 was calculated as indicated in the scheme. […] Reactions were carried out at 3 μM Acetyl-CoA. Empty cells indicate no inhibition or compound activity that could not be fit to an IC50 curve.

A further data set addresses pCAF (Homo sapiens, UniProt Q92831). The experiment in a line: HAT in vitro assay, pCAF. The class given is biochemical. Conditions: substrate Histone H3; 3 μM Acetyl-CoA; 10-dose IC50 mode; read-out: IC50 pCAF acetyltransferase. How it is done:
as §1

Another data set deals with KAT5 (Homo sapiens, UniProt Q92993). Briefly: HAT in vitro assay, KAT5. The format is biochemical. Conditions: substrate Histone H2A; 3 μM Acetyl-CoA; 10-dose IC50 mode; read-out: IC50 KAT5 acetyltransferase. How it is done: as §1
The next data set deals with CBP (Homo sapiens, UniProt Q92793). Briefly: HAT in vitro assay, CBP. The class given is biochemical. Conditions: substrate Histone H3; 3 μM Acetyl-CoA; 10-dose IC50 mode; read-out: IC50 CBP acetyltransferase. How it is done: as §1
A short description of data set [3]: Mouse terminal IP PK study. Conditions: plasma, 2 mg/kg. The class given is in vivo, male CD1 mice. How it is done:
(§2) Compound was administered both intravenously and intraperitoneally to mice. Blood samples were collected at 8 time points over 24 hr and plasma analysed by LC-MS/MS to determine the concentration of compound.
(§3) The plasma time concentration profile was calculated with the main PK parameters (Co, AUClast, t, VD, and CL).
For ip dosing. After formulation assessment, MC2884 was dissolved at 0.2 mg/mL. This provided a dose of 2 mg free base material/kg when administered ip in a 10 mL/kg dosing volume.
(§4) Compound MC2884 was given ip at a dose of 2 mg/kg to a group of 24 normally fed male CD1 mice in a 10 mL/kg injection volume. Terminal blood samples (>230 μL) were taken under CO2 from groups of 3 mice at each of 8 time-points post dose (0.083, 0.25, 0.5, 1, 2, 4, 8 and 24 h) and placed into heparinized tubes. Samples were placed on ice for no longer than 30 min before centrifugation (10,000 rpm×3 min). Plasma samples (>100 μL) were collected into fresh tubes and frozen on dry ice. All samples were stored at −20° C. Number of plasma samples=24. FIG. 17-18 display results for IV-IP administration of MC2884 in normal mice

Data set [4] has as its system immortalized non-cancer cell systems. The experiment in a line: Cytotoxicity on immortalized non-cancer cells. Conditions: at the dose effective on cancer cells.
Experimental: Colorimetric exclusion: cells (2×10^5 cells/mL) were plated in multiwells and in triplicate.
For data set [5], the system named is NB4 cells. Briefly: Cell death induction in NB4 cells. The class given is cell-based, human. Conditions: Homo sapiens, NB-4, 30 h. How it is done:
For cell cycle analyses, the cells were plated (2×10^5 cells/mL) and after stimulation (performed as indicated in the text) were harvested, centrifuged at 1200 rpm for 5 minutes and resuspended in 500 μL of a hypotonic solution containing 1×PBS, Sodium Citrate 0.1%, 0.1% NP-40, RNAase A and […] Propidium Iodide (PI) (a dye that intercalates between the DNA bases, marking the DNA content in the cells and emitting a fluorescent signal that enables the analysis). After 30′ at room temperature (RT) in the dark, samples were acquired by FACS-Calibur (BD Bioscences, San Jose, Calif., USA) using CellQuest software (BD Biosciences). The percentage in different phases of the cell cycle was determined by ModFit LT V3 software (Verity). All experiments were performed in triplicate.
When tested in leukemia NB4 cells at 3 μM for 30 h, MC2884 induced 52.1% cell death. Some MC2884 analogues have been tested to obtain SAR data (Table 8).

Another data set concerns the target T1, CYP3A4 (Homo sapiens, UniProt P08684).
T1 construct: from tissue; host or cells: human liver microsomes
The experiment in a line: Cytochrome P450 inhibition, CYP3A4, human liver microsomes. The class given is in vitro ADME. Conditions: at 25 μM, probe midazolam.

The nature of data set [6]: Mouse terminal IV PK study. The class given is in vivo. Conditions: 2 mg/kg, male CD1 mice, plasma. How it is done: as §2, §3
For iv dosing. Compound was dissolved at 0.4 mg/mL. This provided a dose of 2 mg free base material/kg when administered iv in a 5 mL/kg dosing volume.
as §4, with “given iv via the lateral tail vein” for “given ip”, “a 5” for “a 10”, “ice.” for “ice. All samples were stored at −20° C.”, “samples=24. Consistent IV profiles were obtained, with little variability across the time-points (the average profile is shown in the second spreadsheet). […]” for “samples=24.”, “normal mice.” for “normal mice”

A short description of data set [7]: Stability of MC2884 in cell culture medium (DMEM, RP-HPLC). The format is physicochemical. Conditions: 50 μM in DMEM. How it is done: The compound was dissolved in DMEM at 50 μM and its concentration was measured by RP-HPLC using a ONYX 50×2 mm ID C18 column operating at 600 μL/min. The gradient applied was from 1% solvent B to 70% solvent B in 10 minutes. Solvent A was water with added 0.1% trifluoroacetic acid (TFA) and solvent B was acetonitrile with added 0.1% TFA. The eluate was monitored using a diode array detector with wavelengths set between 200-320 nm. The compound was eluted at 11.1 min. Peak integration was carried out on the chromatogram extracted at […], which is one of the compound absorbance maxima. A calibration curve was built by injecting solutions of the compound in DMSO at concentrations ranging between 1.5 μM and 200 μM. After incubation in DMEM compound concentration was determined at time points ranging between 0 and 72 hrs. As shown, half of compound was degraded after 10h. At 72 hrs it was fully degraded under these conditions.

Chain of pCAF (Q92831 whole entry): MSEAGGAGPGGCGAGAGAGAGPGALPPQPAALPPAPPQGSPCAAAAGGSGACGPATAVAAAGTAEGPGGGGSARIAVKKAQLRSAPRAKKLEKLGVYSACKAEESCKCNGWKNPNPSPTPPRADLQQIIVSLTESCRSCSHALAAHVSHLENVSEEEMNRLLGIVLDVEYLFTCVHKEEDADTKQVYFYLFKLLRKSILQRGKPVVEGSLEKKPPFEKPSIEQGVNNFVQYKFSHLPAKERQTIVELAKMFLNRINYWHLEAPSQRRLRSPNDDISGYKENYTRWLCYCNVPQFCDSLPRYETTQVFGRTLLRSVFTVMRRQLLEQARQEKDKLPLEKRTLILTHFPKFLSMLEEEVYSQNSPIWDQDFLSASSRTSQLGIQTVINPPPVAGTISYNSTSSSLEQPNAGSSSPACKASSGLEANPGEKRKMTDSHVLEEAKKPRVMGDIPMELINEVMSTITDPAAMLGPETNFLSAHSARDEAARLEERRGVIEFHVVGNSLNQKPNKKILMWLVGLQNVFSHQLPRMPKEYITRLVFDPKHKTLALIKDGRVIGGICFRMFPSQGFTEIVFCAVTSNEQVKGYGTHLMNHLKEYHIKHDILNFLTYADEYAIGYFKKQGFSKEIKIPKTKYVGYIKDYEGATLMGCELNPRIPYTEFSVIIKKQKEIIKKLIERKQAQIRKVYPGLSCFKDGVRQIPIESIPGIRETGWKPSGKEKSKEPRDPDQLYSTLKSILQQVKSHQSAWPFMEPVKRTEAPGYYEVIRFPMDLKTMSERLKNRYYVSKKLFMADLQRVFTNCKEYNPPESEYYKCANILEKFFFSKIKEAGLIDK
Chain of CBP (Q92793 whole entry): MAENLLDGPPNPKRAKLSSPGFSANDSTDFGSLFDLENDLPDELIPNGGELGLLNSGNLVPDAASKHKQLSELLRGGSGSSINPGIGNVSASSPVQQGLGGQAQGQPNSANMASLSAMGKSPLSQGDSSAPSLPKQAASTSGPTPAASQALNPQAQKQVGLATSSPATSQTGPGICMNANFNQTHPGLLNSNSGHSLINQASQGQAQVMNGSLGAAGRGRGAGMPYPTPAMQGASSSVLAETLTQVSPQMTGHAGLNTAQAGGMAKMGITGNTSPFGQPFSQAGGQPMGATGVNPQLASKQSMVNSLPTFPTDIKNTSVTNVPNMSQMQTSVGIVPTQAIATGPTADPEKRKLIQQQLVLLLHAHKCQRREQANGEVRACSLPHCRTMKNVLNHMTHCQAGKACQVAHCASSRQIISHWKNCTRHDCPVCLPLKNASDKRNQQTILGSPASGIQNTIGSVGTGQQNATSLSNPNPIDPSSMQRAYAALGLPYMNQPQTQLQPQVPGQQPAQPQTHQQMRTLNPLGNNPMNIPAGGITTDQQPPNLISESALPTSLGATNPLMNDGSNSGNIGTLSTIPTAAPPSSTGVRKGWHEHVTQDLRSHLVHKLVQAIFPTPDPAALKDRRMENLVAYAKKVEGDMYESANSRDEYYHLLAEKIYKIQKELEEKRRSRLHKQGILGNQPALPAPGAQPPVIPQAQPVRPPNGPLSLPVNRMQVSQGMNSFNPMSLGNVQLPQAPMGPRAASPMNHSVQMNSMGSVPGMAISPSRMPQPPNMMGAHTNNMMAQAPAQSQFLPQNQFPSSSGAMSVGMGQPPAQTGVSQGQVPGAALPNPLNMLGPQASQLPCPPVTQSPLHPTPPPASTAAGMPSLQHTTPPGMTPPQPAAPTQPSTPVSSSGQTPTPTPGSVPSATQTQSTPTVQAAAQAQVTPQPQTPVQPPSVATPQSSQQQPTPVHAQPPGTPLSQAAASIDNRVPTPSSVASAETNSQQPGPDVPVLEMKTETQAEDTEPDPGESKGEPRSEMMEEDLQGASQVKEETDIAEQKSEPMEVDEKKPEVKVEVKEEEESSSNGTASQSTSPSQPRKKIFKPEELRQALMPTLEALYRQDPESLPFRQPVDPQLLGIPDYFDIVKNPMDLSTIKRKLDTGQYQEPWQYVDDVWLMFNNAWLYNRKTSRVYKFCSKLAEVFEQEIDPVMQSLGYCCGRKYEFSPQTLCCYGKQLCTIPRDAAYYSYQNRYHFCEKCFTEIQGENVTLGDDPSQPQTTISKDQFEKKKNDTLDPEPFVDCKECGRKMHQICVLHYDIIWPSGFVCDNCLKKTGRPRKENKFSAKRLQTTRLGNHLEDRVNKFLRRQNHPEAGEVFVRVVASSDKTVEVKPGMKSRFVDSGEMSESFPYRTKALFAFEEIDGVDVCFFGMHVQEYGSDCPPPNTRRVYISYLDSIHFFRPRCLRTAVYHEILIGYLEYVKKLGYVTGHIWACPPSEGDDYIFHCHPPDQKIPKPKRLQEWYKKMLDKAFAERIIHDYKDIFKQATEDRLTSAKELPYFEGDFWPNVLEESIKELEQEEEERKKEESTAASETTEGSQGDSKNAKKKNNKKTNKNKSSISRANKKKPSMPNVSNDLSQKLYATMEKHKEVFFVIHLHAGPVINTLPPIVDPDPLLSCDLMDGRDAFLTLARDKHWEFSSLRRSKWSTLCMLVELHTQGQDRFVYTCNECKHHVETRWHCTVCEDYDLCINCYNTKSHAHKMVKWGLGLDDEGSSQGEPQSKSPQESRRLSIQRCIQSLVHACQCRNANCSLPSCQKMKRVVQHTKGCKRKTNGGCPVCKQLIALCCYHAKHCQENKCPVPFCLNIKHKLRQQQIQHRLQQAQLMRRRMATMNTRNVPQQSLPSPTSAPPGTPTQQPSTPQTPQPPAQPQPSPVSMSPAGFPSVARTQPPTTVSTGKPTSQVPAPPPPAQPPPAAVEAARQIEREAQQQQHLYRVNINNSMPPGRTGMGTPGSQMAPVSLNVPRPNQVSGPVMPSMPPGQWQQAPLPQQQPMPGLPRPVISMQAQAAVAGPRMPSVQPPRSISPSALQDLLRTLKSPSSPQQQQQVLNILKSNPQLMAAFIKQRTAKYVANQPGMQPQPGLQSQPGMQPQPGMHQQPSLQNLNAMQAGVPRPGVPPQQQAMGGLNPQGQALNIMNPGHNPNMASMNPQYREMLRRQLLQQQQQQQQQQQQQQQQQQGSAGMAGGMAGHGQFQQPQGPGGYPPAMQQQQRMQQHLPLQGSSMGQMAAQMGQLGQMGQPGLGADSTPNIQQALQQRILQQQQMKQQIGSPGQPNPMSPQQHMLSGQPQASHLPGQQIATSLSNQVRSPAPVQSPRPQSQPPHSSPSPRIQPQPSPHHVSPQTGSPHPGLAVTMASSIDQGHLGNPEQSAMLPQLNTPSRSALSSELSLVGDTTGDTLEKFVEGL
Chain of GCN5 (Q92830 whole entry): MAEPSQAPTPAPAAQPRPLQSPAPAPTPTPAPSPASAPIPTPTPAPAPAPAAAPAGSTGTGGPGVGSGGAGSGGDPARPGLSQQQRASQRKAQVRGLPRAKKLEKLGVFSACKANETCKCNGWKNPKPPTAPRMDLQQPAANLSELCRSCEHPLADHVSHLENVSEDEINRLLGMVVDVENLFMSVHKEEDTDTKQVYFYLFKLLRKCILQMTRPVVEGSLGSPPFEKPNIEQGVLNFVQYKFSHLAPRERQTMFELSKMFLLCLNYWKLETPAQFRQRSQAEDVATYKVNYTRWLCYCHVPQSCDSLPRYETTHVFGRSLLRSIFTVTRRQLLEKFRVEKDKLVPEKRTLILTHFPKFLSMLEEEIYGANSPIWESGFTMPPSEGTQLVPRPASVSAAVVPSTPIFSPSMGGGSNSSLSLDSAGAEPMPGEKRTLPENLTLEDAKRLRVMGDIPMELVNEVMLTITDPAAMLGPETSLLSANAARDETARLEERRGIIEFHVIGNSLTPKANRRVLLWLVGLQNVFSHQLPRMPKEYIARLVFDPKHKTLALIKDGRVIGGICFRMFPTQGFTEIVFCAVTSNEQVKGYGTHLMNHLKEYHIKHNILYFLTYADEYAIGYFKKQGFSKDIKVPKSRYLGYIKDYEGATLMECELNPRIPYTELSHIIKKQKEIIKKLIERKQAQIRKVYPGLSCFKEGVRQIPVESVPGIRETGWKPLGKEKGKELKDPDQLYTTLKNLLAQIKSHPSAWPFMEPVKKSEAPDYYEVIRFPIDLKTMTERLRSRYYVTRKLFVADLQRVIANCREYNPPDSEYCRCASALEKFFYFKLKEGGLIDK
Chain of KAT5 (Q92993 whole entry): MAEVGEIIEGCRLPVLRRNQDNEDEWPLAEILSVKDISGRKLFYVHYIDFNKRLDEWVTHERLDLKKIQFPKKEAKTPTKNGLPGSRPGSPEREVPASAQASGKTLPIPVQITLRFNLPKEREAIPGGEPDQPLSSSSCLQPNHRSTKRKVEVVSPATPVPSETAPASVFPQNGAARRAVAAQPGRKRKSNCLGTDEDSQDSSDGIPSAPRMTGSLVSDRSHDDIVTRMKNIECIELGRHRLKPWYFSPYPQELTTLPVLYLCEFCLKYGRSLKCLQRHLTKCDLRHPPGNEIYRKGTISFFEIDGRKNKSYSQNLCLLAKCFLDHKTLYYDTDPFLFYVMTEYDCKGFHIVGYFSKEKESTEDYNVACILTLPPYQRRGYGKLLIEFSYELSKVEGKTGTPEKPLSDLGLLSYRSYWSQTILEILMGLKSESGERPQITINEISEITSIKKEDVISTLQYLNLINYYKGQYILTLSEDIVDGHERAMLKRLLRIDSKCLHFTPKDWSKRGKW
T1 sequence (P08684 whole entry): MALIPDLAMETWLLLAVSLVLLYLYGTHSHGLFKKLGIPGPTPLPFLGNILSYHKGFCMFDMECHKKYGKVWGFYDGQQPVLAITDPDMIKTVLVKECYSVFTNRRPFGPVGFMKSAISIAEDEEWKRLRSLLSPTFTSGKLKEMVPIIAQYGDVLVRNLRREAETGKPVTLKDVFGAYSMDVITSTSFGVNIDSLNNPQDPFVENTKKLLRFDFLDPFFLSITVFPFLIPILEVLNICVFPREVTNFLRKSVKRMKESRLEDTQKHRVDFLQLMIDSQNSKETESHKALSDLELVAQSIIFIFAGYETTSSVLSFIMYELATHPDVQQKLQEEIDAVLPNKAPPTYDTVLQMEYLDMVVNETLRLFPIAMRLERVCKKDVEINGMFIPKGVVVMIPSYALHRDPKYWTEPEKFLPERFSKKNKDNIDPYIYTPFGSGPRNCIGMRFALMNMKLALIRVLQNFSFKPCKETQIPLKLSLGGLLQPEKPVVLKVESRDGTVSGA

Turning to `CN(C)CC[C@H](CSc1ccccc1)Nc1ccc(S(=O)(=O)NC(=O)c2ccc(N3CCN(Cc4ccccc4-c4ccc(Cl)cc4)CC3)cc2)cc1[N+](=O)[O-]` [ABT-737], the “cell death with ABT-737 plus MC2884” value with NB4 cells [1] is “up to 60%”.
As for `CC1=C(/C=C/C(C)=C/C=C/C(C)=C/C(=O)O)C(C)(C)CCC1` [ATRA, All Trans Retinoic Acid], the “apoptosis in ex vivo APL-R blasts” value in data set [2] is “did not undergo efficient apoptosis”.
The term IC50 denotes the concentration needed to halve the response being measured. As to `CCCCCCCCCCCCCCCc1cccc(O)c1C(=O)O` [Anacardic Acid], the IC50 was 38.6 µM at GCN5 and 38.8 µM on pCAF.
On to `CC1=NN(c2ccc(C(=O)O)cc2)C(=O)/C1=C\c1ccc(-c2cc(C)c(C)cc2[N+](=O)[O-])o1` [C646], for which the values for the IC50 on KAT5 and on CBP were 20.4 µM and 0.0787 µM, respectively.
As usually defined, the AUC is concentration integrated over time. Higher therefore signals high exposure. Consider `O=C1/C(=C/c2cccc(Br)c2)CN(Cc2ccccc2)C/C1=C\c1cccc(Br)c1` [MC2884, 1-benzyl-3,5-bis(3-bromobenzylidene)piperidin-4-one], for which, in data set [3] (male, CD1, mouse, dose route IP, time frame 0-inf), the bioavailability is 140%. For the same compound, the AUC in data set [3] (mouse, ip, male CD1 mice) is 18400 ng·h/mL; in data set [6] (mouse), 13300 ng·h/mL. In data set [4], the “cytotoxicity on non-cancer cells” value was “low cytotoxicity”. In the data set on NB4 cells [5], this compound gave a cytotoxicity at 3 µM of 52.1%. At CYP3A4, this compound came in with a CYP3A4 % inhibition of 45%. In [6], this compound had an average half-life of 4.58 h. In data set [7], the “time for total degradation in culture medium” value was 72 h.
